In publication PMC9228282, “Catalytic Properties of Caseinolytic Protease Subunit of Plasmodium knowlesi and Its Inhibition by a Member of δ-Lactone, Hyptolide” (Molecules, 2022):
Like-named read-outs stand apart in the source and are kept apart here. Values belong to the compound of their own block, whether it stands above or below them.

Columns and labels:
[1] = target: T1, caseinolytic protease proteolytic subunit of Plasmodium knowlesi (Pk-ClpP) (Plasmodium knowlesi, UniProt A0A384LAC0); test: chromogenic protease assay with N-CBZ-Glycine p-nitrophenyl ester on purified Pk-ClpP; assay type: biochemical
T1 construct: gene PKNH_0835300
T1 sequence (A0A384LAC0 141-372 limits assumed): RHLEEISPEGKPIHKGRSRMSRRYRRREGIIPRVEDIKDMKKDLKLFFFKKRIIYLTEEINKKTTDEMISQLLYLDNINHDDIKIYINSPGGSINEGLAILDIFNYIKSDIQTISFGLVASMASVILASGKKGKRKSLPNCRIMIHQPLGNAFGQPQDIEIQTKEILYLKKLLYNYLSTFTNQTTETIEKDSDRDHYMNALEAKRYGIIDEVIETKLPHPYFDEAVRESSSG

[2] = target: T1, caseinolytic protease proteolytic subunit of Plasmodium knowlesi (Pk-ClpP)
[3] = target: caseinolytic protease proteolytic subunit (ClpP) of Plasmodium knowlesi (Plasmodium knowlesi); test: SEC; purified Pk-ClpP on HiLoad 16/60 Superdex 200pg, 50 mM Tris-HCl pH 8.0, 50 mM NaCl, 0.5 mL/min; size by comparison with protein markers

- IC50 ([1]; read-out: IC50): 17.4 ± 1.44 nM
Compound: CC(=O)O[C@H](/C=C\[C@H]1CC=CC(=O)O1)C[C@@H](OC(C)=O)[C@H](C)OC(C)=O [Hyp, hyptolide]

Compound: O=C(CNC(=O)OCc1ccccc1)Oc1ccc([N+](=O)[O-])cc1 [N-CBZ-Glycine p-nitrophenyl ester]
- Km [2]: 3.07 ± 0.18 µM

Compound: O=S(=O)(F)Cc1ccccc1 [PMSF, phenylmethylsulfonyl fluoride, reference compound]
- IC50 [1]: 6.9 ± 0.18 nM

- stoichiometry N [3]: 7
Compound: caseinolytic protease proteolytic subunit (ClpP) of Plasmodium knowlesi (enzyme)
